Laboratory results reported in patent publication US8389544B2, “Isoquinolone compounds as subtype-selective agonists for melatonin receptors MT1 and MT2” (The Hong Kong University of Science and Technology, priority 2007, dated 2013).
Read-outs that look alike come from different tables or passages of the source.

Tests used:
[1] = biological target: MT1 receptor (Homo sapiens, UniProt P48039); experiment: FLIPR Ca2+ mobilization assay, MT1; format: cell-based; set-up: expressed in transfected cells; host or cells: COS-7 (monkey kidney fibroblast); details: for % Response of 2-IMT: MT1, relative to 2-IMT response
Experimental: (§1) 1. FLIPR Ca^2+ Mobilization Assay
(§2) This assay indicates the ability of the novel compounds to activate MT1 and MT2 receptors by measuring downstream events of the activated receptor, in this case intracellular calcium mobilization.
(§3) 1. Intracellular Ca^2+ Mobilization Assay Using Fluorometric Imaging Plate Reader (FLIPR®)
(§4) An intracellular calcium mobilization assay was performed to screen the isoquinolone compounds against the two melatonin receptor subtypes, MT1 and MT2 on the fluorometric imaging plate reader (FLIPR®). In order to facilitate the screening process in a high-throughput manner, chimeric G proteins with the ability to couple to a range of GPCR as well as activate intracellular Ca^2+ were employed. The melatonin receptor subtype (either MT1 or MT2) was co-expressed with the G-protein chimeras in COS-7 (monkey kidney fibroblast) cells. During the assay, cells were exposed to the novel isoquinolone compounds and the corresponding change in fluorescence was measured. Both single point and dose-dependant assays were performed for each isoquinolone compound and based on the latter a dose response curve was generated and the corresponding EC50 for each receptor subtype determined.
(§5) Specifically, COS-7 cells were seeded at a density of 20,000 cells/well into 96-well plates designed for FLIPR assays, using Opti-MEM with 10% FCS at a volume of 100 μl/well. Transfection was carried out using Lipofectamine 2000® reagent. In each well, 0.2 μg of the GPCR and G protein cDNA were diluted with 25 μl of Opti-MEM and 0.2 μl of Lipofectamine 2000® was diluted with another 25 μl of Opti-MEM. They were added to appropriate wells after the two components were mixed for 20 min.
(§6) After 48 hours of incubation post-transfection, 50 μl of the transfection medium was removed from each well followed by the labelling of transfected cells with 100 μl of 2 μM Fluo-4 in calcium containing HBSS (Hank's balanced salt solution) with 20 mM HEPES (N-[2-hydroxyethyl]piperazine—N′-[2-ethanesulfonic acid]; pH 7.5) and 2.5 mM probenecid (anion exchanger inhibitor, freshly prepared) for 1 hour at 37° C. 70 μl of 3× drugs (isoquinolinone compounds encompassing the invention) were prepared and aliquoted into the corresponding wells in the V-well drug plate. Changes in fluorescence were detected in the FLIPR 96 with an excitation wavelength of 488 nm. The background fluorescence was adjusted to the range of 8,000 to 12,000 units by altering the laser power and exposure time (typically 0.4 W and 0.4 sec, respectively) for the FLIPR setup. 50 μl of each agonist solution was added to the corresponding wells and the fluorescent emission (between 510 and 560 nm) was monitored for 3 min. Results were expressed as change in fluorescent intensity units (FIU). Concentration-response curves were generated by determining the maximal change in FIU of each data set. Numerical analysis of the statistics and EC50 (median effective concentration) values were performed on GraphPad Prism version 3.03.
(§7) Then the intracellular Ca^2+ mobilization assays using the Fluorometric Imaging Plate Reader (FLIPR®) were performed as described above.

[2] = biological target: T1, MT2 receptor (Homo sapiens, UniProt P49286); experiment: FLIPR Ca2+ mobilization assay, MT2; format: cell-based; set-up: expressed in transfected cells; host or cells: COS-7 (monkey kidney fibroblast); details: for agonist character / receptor subtype selectivity in words: FLIPR results, MT1 versus MT2; for Emax: read-out: % Response of 2-IMT; for % Response of 2-IMT: MT2, relative to 2-IMT response
T1 sequence (P49286 1-362): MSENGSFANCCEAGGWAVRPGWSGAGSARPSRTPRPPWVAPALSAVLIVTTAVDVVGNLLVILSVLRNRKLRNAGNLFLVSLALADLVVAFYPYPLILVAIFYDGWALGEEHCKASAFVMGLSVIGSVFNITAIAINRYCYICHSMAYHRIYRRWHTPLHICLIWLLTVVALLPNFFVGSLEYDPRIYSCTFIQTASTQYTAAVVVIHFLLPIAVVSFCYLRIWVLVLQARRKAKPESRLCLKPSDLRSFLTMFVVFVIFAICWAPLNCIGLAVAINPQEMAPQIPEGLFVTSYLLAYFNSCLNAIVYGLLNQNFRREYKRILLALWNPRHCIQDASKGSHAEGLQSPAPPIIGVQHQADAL
Experimental: as §1, §2, §3, §4, §5, §6, §7

[3] = Table 1, MT1 in COS-7 cells with chimeric G protein, log value, negative, NSR = no significant response
[4] = Table 1, MT2 in COS-7 cells with chimeric G protein, log value, negative, NSR = no significant response, read-out: Log(EC50) ± SEM (converted)
[5] = Table 1, MT1 in COS-7 cells with chimeric G protein, log value, negative, NSR = no significant response, read-out: Log(EC50) ± SEM (converted)
[6] = Table 1, MT2 in COS-7 cells with chimeric G protein, log value, negative, NSR = no significant response

MT1 receptor, sequence (P48039 whole entry): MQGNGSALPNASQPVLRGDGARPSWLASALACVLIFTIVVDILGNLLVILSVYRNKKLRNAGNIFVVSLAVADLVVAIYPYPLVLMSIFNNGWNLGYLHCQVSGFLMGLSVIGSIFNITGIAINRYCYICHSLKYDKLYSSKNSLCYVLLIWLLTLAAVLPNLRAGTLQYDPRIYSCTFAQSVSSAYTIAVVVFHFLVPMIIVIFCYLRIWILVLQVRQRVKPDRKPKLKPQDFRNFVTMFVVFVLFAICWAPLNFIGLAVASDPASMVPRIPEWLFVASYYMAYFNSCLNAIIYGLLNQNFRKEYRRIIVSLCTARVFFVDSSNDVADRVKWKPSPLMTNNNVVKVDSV

| SMILES | Log(EC50) ± SEM [1, 3] | EC50 [2, 4] [µM] | Emax [2] [%] | % Response of 2-IMT ([1]; Table 1) [%] | Log(EC50) ± SEM [2, 6] | other results |
| --- | --- | --- | --- | --- | --- | --- |
| COc1ccc2c(=O)n(C)ccc2c1OCc1ccc(Br)cc1 [IS009] | NSR | 0.123 | 37.4 |  |  | agonist character / receptor subtype selectivity in words [2]: activated MT2 only |
| COc1cc2c(=O)n(C)ccc2cc1OCc1ccccc1 [IS016] |  | 2.75 | 145 | 65.3 |  | EC50 [1, 5]: 1.35 µM |
| COc1cc2c(=O)n(C)ccc2cc1O [IS001, 6-Hydroxyl-7-methoxyl-2-methyl-1(2H)-isoquinolone] |  |  |  | 71.9 | NSR | EC50 [1, 5]: 1.58 µM |
| COc1ccc2c(=O)n(C)ccc2c1OCc1ccc(C(C)(C)C)cc1 [IS532] | NSR |  |  |  | −5.57 ± 0.75 | % Response of 2-IMT ([2]; Table 1): 22.3% |
| COc1cc2ccn(C)c(=O)c2cc1O [IS002, 7-hydroxyl-6-methoxyl-2-methyl-1(2H)-isoquinolone] |  | 0.871 | 47 | 31.7 |  | EC50 [1, 5]: 1.74 µM |
| COc1ccc(C(=O)COc2c(OC)ccc3c(=O)n(C)ccc23)cc1 [IS010] | NSR |  |  |  | −6.35 ± 0.06 | % Response of 2-IMT ([2]; Table 1): 53.0% |
| COc1ccc(O)c2c(=O)n(C)ccc12 [IS030] | −5.98 ± 0.04 |  |  | 67.5 | −5.52 | % Response of 2-IMT ([2]; Table 1): 39.4% |
| COc1cc2c(=O)n(C)ccc2cc1OCCCc1ccccc1 [IS017] | NSR | 0.107 | 107 |  |  |  |
| Cn1ccc2ccc(O)c(O)c2c1=O [IS037] | NSR | 0.525 | 42.1 |  |  |  |
| COc1cc2ccn(C)c(=O)c2cc1OCCCCCl [IS098] | NSR | 0.00617 | 44.7 |  |  |  |
| C=CCOc1c(OC)ccc2c(=O)n(C)ccc12 [IS007] | NSR | 0.00347 | 49.1 |  |  | EC50 ([2]; read-out: EC50 MT2): 0.00351 µM |
| COc1cc2ccn(C)c(=O)c2cc1OCCCI [IS101, 7-(3-iodopropyloxyl)-6-methoxyl-2-methyl-1(2H)-isoquinolone] | NSR | 0.603 | 65.8 |  |  |  |
| COc1cc2ccn(C)c(=O)c2cc1OCc1ccccc1 [IS003] | NSR |  |  |  | NSR |  |
| COc1ccc2c(=O)n(C)ccc2c1OCCCc1ccccc1 [IS008] | NSR | 0.562 | 57.6 |  |  | agonist character / receptor subtype selectivity in words [2]: activated MT2 only |
| COc1cc2ccn(C)c(=O)c2cc1OCCCc1ccccc1 [IS013] | −5.22 ± 1.28 |  |  | 75.0 | −6.00 ± 0.01 | % Response of 2-IMT ([2]; Table 1): 101.9% |
| COc1ccc2c(=O)n(C)ccc2c1OCc1ccccc1 [IS005] |  |  | 62.9 | 30.5 |  | activity / activation at MT1 compared to 2-IMT ([1]; running text b158, b160): 31%; EC50 ([1]; running text b158, read-out: EC50 MT1): 0.00581 µM; activity / efficacy at MT2 compared to 2-IMT [2]: 63%; agonist character / receptor subtype selectivity in words [2]: partial agonist; EC50 ([2]; read-out: EC50 MT2): 0.0485 µM |
